In brackets after ≈: the same amount, converted by molar mass. Read-outs that look alike come from different tables or passages of the source.
Assays:
Format in all cases: cell-based
[1] = system: Mucor sp.; assay: Broth microdilution MIC of individual antifungals; conditions: individual antifungal, 25% PDB, about 25° C., 72 hours, range over N independent triplicate studies
[2] = system: Candida albicans; assay: Broth microdilution MIC of individual antifungals; conditions: for MIC: read-out: Independent MIC
[3] = system: Magnaporthe grisea; assay: microbe, parasite or virus in culture; conditions: for MIC: Pyricularia oryzae, 72 h, read-out: Independent MIC
[4] = system: Colletotrichum orbiculare; assay: Broth microdilution MIC of individual antifungals; conditions: for MIC: read-out: Independent MIC
[5] = system: Aspergillus niger; assay: Broth microdilution MIC of individual antifungals; conditions: for MIC: read-out: Independent MIC
[6] = system: Fusarium graminearum; assay: microbe, parasite or virus in culture; conditions: for MIC: 72 h, read-out: Independent MIC
[7] = system: Rhizoctonia solani; assay: Broth microdilution MIC of individual antifungals; conditions: individual antifungal, 25% PDB, about 25° C., 72 hours, range over N independent triplicate studies; for MIC: read-out: Independent MIC
[8] = system: Sclerotinia homoeocarpa; assay: Broth microdilution MIC of individual antifungals; conditions: Sclerotinia homoeocarpa, individual antifungal, 25% PDB, about 25° C., 72 hours, range over N independent triplicate studies; for MIC: Clarireedia homoeocarpa, read-out: Independent MIC
[9] = system: Botrytis cinerea 10-1728; assay: Broth microdilution MIC of individual antifungals; conditions: Botrytis cinerea 10-1728, individual antifungal, 25% PDB, about 25° C., 72 hours, range over N independent triplicate studies; for MIC: 101728, read-out: Independent MIC
[10] = system: Aspergillus fumigatus; assay: Broth microdilution MIC of individual antifungals; conditions: individual antifungal, 25% PDB, about 25° C., 72 hours, range over N independent triplicate studies; for MIC: read-out: Independent MIC
[11] = system: Aspergillus flavus; assay: Broth microdilution MIC of individual antifungals; conditions: individual antifungal, 25% PDB, about 25° C., 72 hours, range over N independent triplicate studies; for MIC: read-out: Independent MIC
[12] = system: Aureobasidium pullulans; assay: Broth microdilution MIC of individual antifungals; conditions: individual antifungal, 25% PDB, about 25° C., 72 hours, range over N independent triplicate studies; for MIC: read-out: Independent MIC
[13] = system: Phytophthora pini; assay: Broth microdilution MIC of individual antifungals; conditions: individual antifungal, 25% PDB, about 25° C., 72 hours, range over N independent triplicate studies
[14] = system: Botrytis cinerea B17; assay: Broth microdilution MIC of individual antifungals; conditions: Botrytis cinerea B17, individual antifungal, 25% PDB, about 25° C., 72 hours, range over N independent triplicate studies; for MIC: read-out: Independent MIC
[15] = system: Fusarium solani f. sp. pisi (MP VI); assay: Broth microdilution MIC of individual antifungals; conditions: Fusarium solani f. sp. pisi (MP VI), individual antifungal, 25% PDB, about 25° C., 72 hours, range over N independent triplicate studies
[16] = system: Fusarium verticillioides; assay: Broth microdilution MIC of individual antifungals; conditions: individual antifungal, 25% PDB, about 25° C., 72 hours, range over N independent triplicate studies; for MIC: read-out: Independent MIC
[17] = system: Mycosphaerella zeae-maydis; assay: Broth microdilution MIC of individual antifungals; conditions: individual antifungal, 25% PDB, about 25° C., 72 hours, range over N independent triplicate studies; for MIC: Didymella maydis
[18] = system: Rhizopus sp.; assay: Broth microdilution MIC of individual antifungals; conditions: Rhizopus sp., individual antifungal, 25% PDB, about 25° C., 72 hours, range over N independent triplicate studies; for MIC: Rhizopus, 72 h, read-out: Independent MIC
[19] = system: Fusarium oxysporum f. sp. lycopersici; assay: Broth microdilution MIC of individual antifungals; conditions: individual antifungal, 25% PDB, about 25° C., 72 hours, range over N independent triplicate studies
[20] = system: Pythium aphanodermatum; assay: Broth microdilution MIC of individual antifungals; conditions: individual antifungal, 25% PDB, about 25° C., 72 hours, range over N independent triplicate studies
[21] = system: Stachybotrys chartarum; assay: Broth microdilution MIC of individual antifungals; conditions: individual antifungal, 25% PDB, about 25° C., 72 hours, range over N independent triplicate studies; for MIC: read-out: Independent MIC
[22] = system: Fusarium oxysporum ST33; assay: Broth microdilution MIC of individual antifungals; conditions: individual antifungal, 25% PDB, about 25° C., 72 hours, range over N independent triplicate studies
[23] = system: Alternaria solani; assay: Broth microdilution MIC of individual antifungals; conditions: individual antifungal, 25% PDB, about 25° C., 72 hours, range over N independent triplicate studies; for MIC: read-out: Independent MIC
[24] = system: Penicillium chrysogenum; assay: Broth microdilution MIC of individual antifungals; conditions: individual antifungal, 25% PDB, about 25° C., 72 hours, range over N independent triplicate studies; for MIC: read-out: Independent MIC
[25] = individual antifungal, 25% PDB, about 25° C., 72 hours, range over N independent triplicate studies

CC(C)OP(=O)(OC(C)C)SCc1ccccc1 [Iprobenfos, iprobenfos]
MIC [1]: 100 to 200 µg/mL
MIC ([2]; 72 h): 200 to 400 µg/mL
MIC [3]: 25 µg/mL (≈ 86.7 µM)
MIC ([4]; 72 h): 12.5 to 25 µg/mL
MIC ([5]; 72 h): 200 to 300 µg/mL
MIC ([6]; Fusarium graminearum): 200 to 400 µg/mL (≈ 694 to 1390 µM)
MIC [7]: 200 to 400 µg/mL
MIC [8]: 12.5 to 25 µg/mL
MIC [9]: 100 to 200 µg/mL

Cc1cc(C)nc(Nc2ccccc2)n1 [Pyrimethanil, pyrimethanil]
MIC [1]: 200 µg/mL
MIC [2, 25]: 200 µg/mL
MIC [3]: 100 to 200 µg/mL (≈ 502 to 1000 µM)
MIC [10]: 0.78 to 1 µg/mL
MIC [11]: 25 µg/mL
MIC [12]: 25 to 50 µg/mL
MIC [13]: 100 µg/mL
MIC [5, 25]: 100 to 200 µg/mL
MIC [14]: 50 to 100 µg/mL
MIC ([15]; read-out: Independent MIC): 200 to 400 µg/mL
MIC [16]: 200 µg/mL
MIC [17]: 6.25 to 12.5 µg/mL
MIC [18]: 200 to 400 µg/mL
MIC [19]: 200 µg/mL
MIC [20]: 100 to 200 µg/mL
MIC ([6]; Fusarium graminearum): 200 µg/mL (≈ 1000 µM)
MIC [21]: 50 to 90 µg/mL
MIC [22]: 200 µg/mL
MIC [23]: 100 to 200 µg/mL
MIC [8]: 50 to 100 µg/mL
MIC [9]: 50 to 100 µg/mL

CC(C)(C)C(O)(CCc1ccc(Cl)cc1)Cn1cncn1 (centres unmarked) [Tebuconazole, tebuconazole]
MIC [1]: 12.5 to 15 µg/mL
MIC [2, 25]: 100 to 200 µg/mL
MIC [4, 25]: 1.56 to 3.13 µg/mL
MIC [10]: 0.78 to 1.56 µg/mL
MIC [11]: 3 to 3.12 µg/mL
MIC [5, 25]: 3.12 µg/mL
MIC [16]: 1.56 to 3 µg/mL
MIC [17]: 50 to 100 µg/mL
MIC [18]: 0.78 µg/mL
MIC [7]: 3.12 to 6.25 µg/mL
MIC [23]: 25 to 50 µg/mL
MIC [8]: 0.39 to 0.78 µg/mL
MIC [9]: 1 to 1.56 µg/mL

c1ccc2[nH]c(-c3cscn3)nc2c1 [Thiabendazole]
MIC [3]: 1.56 to 3.13 µg/mL (≈ 7.75 to 15.6 µM)
MIC [10]: 12.5 to 50 µg/mL
MIC [11]: 12.5 to 40 µg/mL
MIC [12]: 0.2 to 0.39 µg/mL
MIC [13]: 100 µg/mL
MIC [5, 25]: 12.5 to 50 µg/mL
MIC [24]: 0.375 to 0.39 µg/mL
MIC [14]: 50 µg/mL
MIC [16]: 3 to 6.25 µg/mL
MIC [17]: 12.5 to 25 µg/mL
MIC [19]: 200 to 400 µg/mL
MIC [20]: 200 to 400 µg/mL
MIC ([6]; Fusarium graminearum): 1.5 to 3.12 µg/mL (≈ 7.45 to 15.5 µM)
MIC [21]: 25 to 30 µg/mL
MIC [22]: 25 to 80 µg/mL
MIC [8]: 20 to 25 µg/mL
MIC [9]: 200 to 400 µg/mL

COC(=O)NC(=S)Nc1ccccc1NC(=S)NC(=O)OC [Thiophanate-Methyl, thiophanate-methyl]
MIC [1]: 200 to 400 µg/mL
MIC [3]: 25 to 50 µg/mL (≈ 73 to 146 µM)
MIC [10]: 50 to 100 µg/mL
MIC [12]: 0.1 to 0.39 µg/mL
MIC [13]: 25 µg/mL
MIC [5, 25]: 25 µg/mL
MIC [24]: 12.5 µg/mL
MIC [17]: 25 to 50 µg/mL
MIC [20]: 400 µg/mL
MIC ([6]; Fusarium graminearum): 100 to 400 µg/mL (≈ 292 to 1170 µM)
MIC [8]: 0.5 to 1 µg/mL
MIC [9]: 200 to 400 µg/mL

mancozeb
Independent MIC [1]: (50-100) μg/mL
Independent MIC [2, 25]: 50 µg/mL
Independent MIC ([3]; Magnaporthe grisea, individual antifungal, 25% PDB, about 25° C., 72 hours, range over N independent triplicate studies): 6.25 µg/mL
Independent MIC [4, 25]: (6.25-12.5) μg/mL
Independent MIC [10]: 100 µg/mL
Independent MIC [11]: (6.25-25)^ μg/mL
Independent MIC [12]: (6.25-12.5) μg/mL
Independent MIC [13]: 0.39 µg/mL
Independent MIC [5, 25]: (25-50) μg/mL
Independent MIC [24]: (6.25-12.5) μg/mL
Independent MIC [14]: (32-64) μg/mL
Independent MIC [15]: 100 µg/mL
Independent MIC [16]: (4-8) μg/mL
Independent MIC [17]: (3.125-8) ^ μg/mL
Independent MIC [18]: (25-80) μg/mL
Independent MIC [19]: (6-12.5) μg/mL
Independent MIC [20]: (28-50) μg/mL
Independent MIC ([6]; Fusarium graminearum, individual antifungal, 25% PDB, about 25° C., 72 hours, range over N independent triplicate studies): 12.5 µg/mL
Independent MIC [21]: (3.125-6.25) μg/mL
Independent MIC [22]: (32-80) μg/mL
Independent MIC [23]: (10-12.5) μg/mL
Independent MIC [8]: (8-20) μg/mL
Independent MIC [9]: 3.125 µg/mL

maneb
Independent MIC [1]: (25-50) μg/mL
Independent MIC [2, 25]: 1.56 µg/mL
Independent MIC [3]: 1.56 µg/mL
Independent MIC [4, 25]: (3.13-6.25) μg/mL
Independent MIC [10]: 3.125 µg/mL
Independent MIC [11]: (12.5-25)^ μg/mL
Independent MIC [13]: 3.125 µg/mL
Independent MIC [5, 25]: (50-100) μg/mL
Independent MIC [24]: 25 µg/mL
Independent MIC [15]: 25 µg/mL
Independent MIC [16]: 6.25 µg/mL
Independent MIC [17]: 25 µg/mL
Independent MIC [18]: (50-100) μg/mL
Independent MIC [6]: 12.5 µg/mL
Independent MIC [7]: (50-100) μg/mL
Independent MIC [23]: (25-50) μg/mL
Independent MIC [8]: 1.56 µg/mL
Independent MIC [9]: (12.5-40)^ μg/mL

From patent publication US9737075B2, “Synergistic benzoxaborole-containing anti-fungicidal composition” (The Penn State Research Foundation, priority 2015, dated 2017)
